Experimental data taken from US20260041670A1, “DRUGS FOR PREVENTING AND/OR TREATING ALZHEIMER'S DISEASE” (SHENZHEN UNIVERSITY OF ADVANCED TECHNOLOGY, priority 2023, published 2026).
Converted amounts (≈) assume the structure as drawn. Read-outs that look alike come from different tables or passages of the source.

How the values were obtained:
[1] = cited from earlier work
TrkB = molecular target: T1, TrkB (Homo sapiens, UniProt Q16620); experiment: Pro-survival MTT assay after staurosporine-induced apoptosis in BR6 and T48 cells; type: cell-based; settings: STS 100 nM, 24 h, in words, relative to CF3CN
T1 construct: expressed in transfected cells; host or cells: human SH-SY5Y cells (BR6/Br6) and T48 cells
T1 sequence (Q16620 32-822, species assumed): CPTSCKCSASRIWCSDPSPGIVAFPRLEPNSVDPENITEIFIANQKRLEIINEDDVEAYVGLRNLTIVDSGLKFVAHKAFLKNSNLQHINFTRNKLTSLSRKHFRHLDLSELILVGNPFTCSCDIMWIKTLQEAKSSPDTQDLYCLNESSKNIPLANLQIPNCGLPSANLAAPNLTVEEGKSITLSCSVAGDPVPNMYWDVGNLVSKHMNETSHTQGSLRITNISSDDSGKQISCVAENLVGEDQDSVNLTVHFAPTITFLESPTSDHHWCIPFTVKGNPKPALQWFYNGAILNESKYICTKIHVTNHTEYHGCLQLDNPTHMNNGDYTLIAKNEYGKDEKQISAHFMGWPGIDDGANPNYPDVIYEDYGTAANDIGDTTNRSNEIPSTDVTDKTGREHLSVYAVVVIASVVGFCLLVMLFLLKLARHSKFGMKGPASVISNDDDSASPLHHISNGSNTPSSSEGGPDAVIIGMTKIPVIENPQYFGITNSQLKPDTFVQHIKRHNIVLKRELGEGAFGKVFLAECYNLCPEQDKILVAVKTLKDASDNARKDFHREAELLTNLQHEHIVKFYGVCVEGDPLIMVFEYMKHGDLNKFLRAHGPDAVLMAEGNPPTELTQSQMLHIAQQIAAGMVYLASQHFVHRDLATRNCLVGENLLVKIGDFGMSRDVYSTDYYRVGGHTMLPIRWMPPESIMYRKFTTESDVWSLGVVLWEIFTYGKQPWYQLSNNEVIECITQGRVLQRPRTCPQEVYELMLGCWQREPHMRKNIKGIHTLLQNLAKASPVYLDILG
Protocol: FIG. 1b illustrates EC50 values of CF3CN and derivatives thereof. BR6 and T48 cells are treated with staurosporine (STS) (100 nM) and TrkB agonists. CF3CN and compounds #1-4 are added in a dose-dependent manner at concentrations of 0, 5, 10, 50, 100, 500, and 1,000 nM. After 24 h, an MTT assay is performed, and EC50 values are calculated using Prism software (n=3; data are represented by mean±standard deviation (SD)).
The pro-survival effects of four derivatives were quantitatively analyzed in human SH-SY5Y cells and T48 cells stably transfected with the TrkB. […] As PLCγ1 bound with a p-Y816 residue on the TrkB receptor and was subsequently tyrosine-phosphorylated by active TrkB, a tyrosine phosphorylation signal was also monitored in this example (FIG. 1c).

[2] = Stability in plasma (mouse); type: in vitro ADME; settings: for half-life: plasma, read-out: Stability-Plasma T1/2
Aβ = experiment: IHC staining of Aβ in brain sections; type: in vivo; settings: 3×Tg mice, gavage 3 months
Protocol: FIG. 9e illustrates immunohistochemical (IHC) staining of Aβ in brain sections of 3×Tg mice, with a scale bar=50 μm.
FIG. 9f illustrates a quantitative diagram of FIG. 9e (n=6, one-way ANOVA).
(§1) To investigate whether long-term chronic treatment with #2-NP alleviates cognitive deficits in 3×Tg AD model mice, mice were administered via gavage with #2 at 3 mg/kg, #2-NP at 3 mg/kg, and #2-NP at 10 mg/kg. […] The recognition index was increased by #2-NP in a dose-dependent manner (FIGS. 9a and b). […] Additionally, quantitative analysis of Aβ PET signals was performed using the specific ligand [18F] […] Collectively, #2-NP decreases cerebral Aβ deposition, reduces brain atrophy, and ameliorates cognitive deficits in 3×Tg mice.

[3] = Stability in microsomes (human); type: in vitro ADME; settings: for microsomal CLint / half-life: liver microsomes; for microsomal CLint: read-out: Stability-Microsomes CL; for half-life: read-out: Stability-Microsomes T1/2
Solubility (pH 7.4; PBS) = type: physicochemical
[4] = Plasma protein binding (mouse); type: in vitro ADME; settings: plasma, read-out: Plasma Protein Binding Fu, plasma
in vivo = settings: ICR, mouse
Protocol: (§2) FIG. 6b illustrates plasma concentrations following administration of #2 or #2-NP. ICR mice are divided into four groups, which are administered with #2 at 2 mg/kg (intravenous injection, IV), #2 at 5 mg/kg (oral administration, PO), #2-NP at 5 mg/kg (PO), and #2-NP at 10 mg/kg (PO). Blood samples are collected from all three mice of each group at corresponding time points, and concentrations of #2 are quantitatively analyzed by a liquid chromatography-tandem mass spectrometry (LC-MS/MS). Cmax: maximum plasma concentration; Tmax: time to maximum concentration; T½: terminal elimination half-life; AUC: area under curves; MRT: mean residence time; CL: clearance; and F: relative oral bioavailability.
(§3) FIG. 13a illustrates plasma concentrations and PK parameters of #2 quantitatively analyzed by LC-MS/MS after IG administration of #2, #2-NP, and #2-LIP at 5 mg/kg, as well as IN administration of #2 and #2-LIP at 5 mg/kg (n=3; data are represented by mean±SD).
(§4) FIG. 13b illustrates brain concentrations and PK parameters of #2 quantitatively analyzed by LC-MS/MS after IG administration of #2, #2-NP, and #2-LIP at 5 mg/kg, as well as IN administration of #2 and #2-LIP at 5 mg/kg (n=3; data are represented by mean±SD).
(§5) To investigate the in vivo PK profile of #2-NP, lyophilized #2-NP powder was redissolved. […] For quantitative comparison of the effects of the nanoparticle system in delivering #2 to the blood circulation system and brain tissues, PK studies were performed in 2-month-old ICR mice.

[5] = Plasma protein binding (human); type: in vitro ADME; settings: plasma, read-out: Plasma Protein Binding Fu, plasma
p-TrkB Y816 = experiment: Immunofluorescent staining of p-TrkB in brain sections; type: in vivo; settings: 3×Tg mice, IF staining
Description: FIG. 11a illustrates immunofluorescent (IF) staining of p-TrkB and microtubule-associated protein 2 (MAP2) in brain tissues of 3×Tg mice, with a scale bar=50 μm.
FIG. 11e illustrates quantification of p-TrkB intensities in the hippocampus (n=6, one-way ANOVA) (data are represented by mean±SD; ns represents no statistically significant difference, *p<0.05, **p<0.01, ***p<0.001).
To further analyze the therapeutic effects of #2-NP against AD pathology, immunofluorescent (IF) staining of p-TrkB was performed on brain sections from drug-treated 3×Tg mice. […] Consequently, p-AEP IF signals were closely correlated with the upstream p-TrkB activity (FIGS. 11b & f). Simultaneously, active AEP IF staining was inversely coupled with the p-AEP activity, thereby leading to a progressive decline in APP C585 levels. Consistent with these findings, Tau N368 signals and AT8 IF intensity were closely correlated with each other (FIGS. 7C & D). Quantitative analysis of the fluorescence intensity confirmed these observations (FIGS. 11g-j).

3×Tg mice [6] = experiment: Novel object recognition (NOR) test after 3 months treatment; type: in vivo; settings: gavage 3 months, #2 3 mg/kg, #2-NP 3 and 10 mg/kg
Protocol: FIG. 9a illustrates representative movement trajectories in a novel object recognition (NOR) test for 3×Tg mice from a Vehicle group, a #2 3 mg/kg group, a #2-NP 3 mg/kg group, and a #2-NP 10 mg/kg group.
FIG. 9b illustrates statistical analysis of recognition indexes of different groups (n=6, one-way ANOVA).
as §1

3×Tg mice [7] = experiment: MRI cerebral cortex volume; type: in vivo; settings: gavage 3 months
Protocol: FIG. 9c illustrates representative T2-weighted magnetic resonance imaging (MRI) scanning images of 3×Tg mice, with cortical regions of interest (ROI) marked by red lines.
FIG. 9d illustrates a quantified cerebral cortex volume of ROI (n=3, one-way ANOVA).
as §1

[8] = ICR, mouse, in vivo
Protocol: as §2, §3, §4, §5

[9] = Stability in microsomes (mouse); type: in vitro ADME
hERG = hERG (Homo sapiens, UniProt Q12809); experiment: hERG inhibition
hERG, sequence (Q12809 whole entry): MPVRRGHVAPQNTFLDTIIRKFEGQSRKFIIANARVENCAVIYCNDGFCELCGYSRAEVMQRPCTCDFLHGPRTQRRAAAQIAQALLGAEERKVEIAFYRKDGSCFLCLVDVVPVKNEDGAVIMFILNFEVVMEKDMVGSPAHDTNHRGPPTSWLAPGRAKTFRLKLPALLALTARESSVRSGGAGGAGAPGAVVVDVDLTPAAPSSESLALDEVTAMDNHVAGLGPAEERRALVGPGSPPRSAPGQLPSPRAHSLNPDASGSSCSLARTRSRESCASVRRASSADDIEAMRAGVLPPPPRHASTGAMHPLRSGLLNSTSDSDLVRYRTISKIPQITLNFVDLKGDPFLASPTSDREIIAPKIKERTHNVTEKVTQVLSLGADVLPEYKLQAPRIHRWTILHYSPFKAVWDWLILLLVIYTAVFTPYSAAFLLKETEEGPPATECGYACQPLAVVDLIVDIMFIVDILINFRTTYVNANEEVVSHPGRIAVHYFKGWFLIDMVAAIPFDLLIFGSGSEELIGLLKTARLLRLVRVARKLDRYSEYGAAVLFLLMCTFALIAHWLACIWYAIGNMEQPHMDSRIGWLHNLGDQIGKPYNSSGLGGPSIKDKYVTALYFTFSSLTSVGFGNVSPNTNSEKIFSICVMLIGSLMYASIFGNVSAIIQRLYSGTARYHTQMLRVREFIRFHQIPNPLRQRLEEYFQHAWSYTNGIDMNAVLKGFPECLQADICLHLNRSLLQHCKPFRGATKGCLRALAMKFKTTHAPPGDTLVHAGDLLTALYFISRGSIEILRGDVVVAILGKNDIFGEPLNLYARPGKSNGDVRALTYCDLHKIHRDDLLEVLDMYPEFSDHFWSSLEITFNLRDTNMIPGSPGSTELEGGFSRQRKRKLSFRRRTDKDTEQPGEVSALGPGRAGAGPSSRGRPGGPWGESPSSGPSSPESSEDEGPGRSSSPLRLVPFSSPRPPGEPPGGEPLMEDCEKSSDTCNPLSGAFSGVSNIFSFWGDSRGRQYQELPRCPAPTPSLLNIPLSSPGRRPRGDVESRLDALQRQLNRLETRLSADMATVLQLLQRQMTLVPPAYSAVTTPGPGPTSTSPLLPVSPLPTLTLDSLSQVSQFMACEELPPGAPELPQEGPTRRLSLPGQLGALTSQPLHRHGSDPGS

[10] = Stability in hepatocytes (mouse); type: in vitro ADME; settings: for hepatocyte CLint / half-life: hepatocytes; for hepatocyte CLint: read-out: Stability-Hepatocytes CL; for half-life: read-out: Stability-Hepatocytes T1/2
Permeability Caco-2 = type: in vitro ADME; settings: human, Caco-2
[11] = Stability in plasma (human); type: in vitro ADME; settings: for half-life: plasma, read-out: Stability-Plasma T1/2
[12] = Stability in hepatocytes (human); type: in vitro ADME; settings: for hepatocyte CLint / half-life: hepatocytes; for hepatocyte CLint: read-out: Stability-Hepatocytes CL; for half-life: read-out: Stability-Hepatocytes T1/2
Aβ42 = experiment: ELISA of Aβ42 in brain tissues; type: in vivo; settings: 3×Tg mice, gavage 3 months
Protocol: FIG. 9i illustrates quantitative analysis of Aβ42 in brain tissues by an enzyme-linked immunosorbent assay (ELISA) (n=3, one-way ANOVA) (data are represented by mean±SD; […], ***p<0.005, ****p≤0.0001).
as §1

Permeability PAMPA-BBB = type: in vitro ADME; settings: for Papp: PAMPA, read-out: Permeability-PAMPA-BBB Pe
[13] = In vivo PK (plasma and brain, LC-MS/MS) in ICR mice; settings: Table 1; dose and route not stated there
plasma proteins [14] = experiment: Plasma protein binding (mouse); type: in vitro ADME
plasma proteins [15] = experiment: Plasma protein binding (human); type: in vitro ADME
Caco-2 cells = experiment: Permeability Caco-2; type: in vitro ADME

O=c1cc(-c2ccccc2)oc2c(O)c(O)ccc12 [7,8-DHF, 7,8-dihydroxyflavone]
oral bioavailability ([1]; earlier work on 7,8-DHF): approximately 4.6%

NCc1ccc(-c2cc(=O)c3ccc4nc(C(F)(F)F)[nH]c4c3o2)cc1 [#1]
pro-survival EC50 (TrkB): excessively high

CNCc1ccc(-c2cc(=O)c3ccc4nc(C(F)(F)F)[nH]c4c3o2)cc1 [#2]
half-life [2]: > 8 h
Aβ aggregation in the hippocampus (Aβ): significantly reduced
microsomal CLint [3]: 2.32 µL/min/mg
half-life [3]: 9.97 h
solubility (Solubility (pH 7.4; PBS); aqueous buffer): 50 µM (≈ 18.7 µg/mL)
pro-survival EC50 (TrkB): comparable
fraction unbound [4]: 0.012
Kp (in vivo): ~0.1
Cmax (in vivo; 5 mg/kg, maximum plasma concentration (Cmax)): 947 ng/mL
AUC (in vivo; inhaled or intranasal, 5 mg/kg): 1900 ng·h/mL
MRT (in vivo; inhaled or intranasal, 5 mg/kg): 2.11 h
bioavailability (in vivo; inhaled or intranasal, 5 mg/kg): 34.3%
half-life (in vivo; inhaled or intranasal, 5 mg/kg, elimination half-life): 1.54 h
Cmax (in vivo; inhaled or intranasal, 5 mg/kg, maximum plasma concentration (Cmax)): 947 ng/mL
AUC (in vivo; iv, 2 mg/kg): 2320 ng·h/mL
half-life (in vivo; iv, 2 mg/kg, brain t1/2): 1.41 h
half-life (in vivo; iv, 2 mg/kg, plasma half-life (t½)): 0.84 h
half-life (in vivo; iv, half-life in the brain): 3.49 h
AUC (in vivo; po, 5 mg/kg): 405 ng·h/mL
Cmax (in vivo; po, 5 mg/kg, Cmax): 90.8 ng/mL
half-life (in vivo; po, 5 mg/kg, brain t1/2): 3.49 h
half-life (in vivo; po, 5 mg/kg, half-life in the brain): 2.39 h
Cmax (in vivo; po, 5 mg/kg, maximum plasma concentration (Cmax)): 90.8 ng/mL
half-life (in vivo; po, 5 mg/kg, plasma half-life (t½)): ~4.09 h
half-life (in vivo; t1/2): 4.09 ± 2.65 h
fraction unbound [5]: 0.046
p-TrkB Y816 in the hippocampus (p-TrkB Y816): significant activation
cognitive function in NOR test (recognition index) (3×Tg mice [6]): failed to improve
cerebral cortex volume compared to the Vehicle group (3×Tg mice [7]): elevation trend without statistical significance
brain AUC ([8]; 5 mg/kg): 78.34 ng·h/mL
plasma Cmax, IN versus PO administration ([8]; 5 mg/kg): approximately 10 fold
clearance (CL) ([8]; inhaled or intranasal, 5 mg/kg): 43.95 mL/min/kg
brain maximum concentration ([8]; iv): 18.47 ng/g
brain AUC ([8]; iv, 2 mg/kg): 84.26 ng·h/mL
brain Cmax ([8]; iv, 2 mg/kg): 164.38 ng/g
brain maximum concentration ([8]; po): 27.663 ng/g
brain AUC ([8]; po, 5 mg/kg): 35.75 ng·h/mL
brain Cmax ([8]; po, 5 mg/kg): 18.47 ng/g
clearance ([8]; po, 5 mg/kg): 223 mL/min/kg
microsomal CLint ([9]; liver microsomes, read-out: Stability-Microsomes CL): 10.5 µL/min/mg
half-life ([9]; liver microsomes, read-out: Stability-Microsomes T1/2): 2.22 h
IC50 (hERG): > 10 µM
hepatocyte CLint [10]: < 3 µL/min/1e6 cells
half-life [10]: > 8 h
efflux ratio (Permeability Caco-2): 193
Papp A→B (Permeability Caco-2; a-b): 0.0175 ×10⁻⁶ cm/s
Papp B→A (Permeability Caco-2): 13.9 ×10⁻⁶ cm/s
half-life [11]: > 8 h
hepatocyte CLint [12]: < 3 µL/min/1e6 cells
half-life [12]: > 8 h
Aβ42 content (Aβ42): significantly decreased
Papp (Permeability PAMPA-BBB): 0.135 ×10⁻⁶ cm/s

CNC(=O)c1ccc(-c2cc(=O)c3ccc4nc(C(F)(F)F)[nH]c4c3o2)cc1 [#3]
half-life [2]: > 8 h
microsomal CLint [3]: 1.03 µL/min/mg
half-life [3]: 22.5 h
solubility (Solubility (pH 7.4; PBS); aqueous buffer): > 100 µM
fraction unbound [4]: 0.005
fraction unbound [5]: 0.002
IC50 (hERG): > 10 µM
hepatocyte CLint [10]: < 3 µL/min/1e6 cells
half-life [10]: > 8 h
Papp B→A (Permeability Caco-2): 28.7 ×10⁻⁶ cm/s
half-life [11]: > 8 h
hepatocyte CLint [12]: < 3 µL/min/1e6 cells
half-life [12]: > 8 h
Papp (Permeability PAMPA-BBB): 0.815 ×10⁻⁶ cm/s

CN(C)C(=O)c1ccc(-c2cc(=O)c3ccc4nc(C(F)(F)F)[nH]c4c3o2)cc1 [#4]
half-life [2]: > 8 h
solubility (Solubility (pH 7.4; PBS); aqueous buffer): > 100 µM
pro-survival EC50 (TrkB): comparable
fraction unbound [4]: 0.009
fraction unbound [5]: 0.004
IC50 (hERG): > 10 µM
hepatocyte CLint [10]: < 3 µL/min/1e6 cells
half-life [10]: > 8 h
Papp B→A (Permeability Caco-2): 45.9 ×10⁻⁶ cm/s
half-life [11]: > 8 h
hepatocyte CLint [12]: < 3 µL/min/1e6 cells
half-life [12]: > 8 h
Papp (Permeability PAMPA-BBB): 1.27 ×10⁻⁶ cm/s

N#Cc1ccc(-c2cc(=O)c3ccc4[nH]c(C(F)(F)F)nc4c3o2)cc1 [CF3CN, reference compound]
t1/2 [13]: 2.994 ± 1.538 h
Stability-Plasma T1/2 [2]: >480 (mouse); min
Stability-Microsomes CL [3]: <12.8(human); μL/min/mg
Stability-Microsomes T1/2 [3]: >180(human); min
solubility (Solubility (pH 7.4; PBS)): >200 µM
B/P Ratio (Brain/Plasma Ratio) ([1]; earlier work on CF3CN): approximately 1%
Plasma Protein Binding Fu, plasma (plasma proteins [14]): 3.55% (mouse)
Plasma Protein Binding Fu, plasma (plasma proteins [15]): 0.101% (human);
Stability-Microsomes CL [9]: <12.8(mouse) μL/min/mg
Stability-Microsomes T1/2 [9]: >180(mouse) min
IC50 (hERG): > 25 µM
Stability-Hepatocytes T1/2 [10]: >480 (mouse); min
Caco-2 Efflux Ratio (Caco-2 cells): 3.6
Permeability-Caco-2 Papp (b-a) (Caco-2 cells; b-a): 42.6 (b-a) 10 cm/s
Stability-Plasma T1/2 [11]: >480 (human) min
Stability-Hepatocytes T1/2 [12]: >480 (human) min
Permeability-PAMPA-BBB Pe (Permeability PAMPA-BBB): 3.09 10 cm/s
